Counter-ions that a name gives are not always drawn.
system: Neisseria gonorrhoeae; test: EC50 determination: plate-based broth growth assay (absorbance at 600 nm) of Neisseria gonorrhoeae; type: cell-based; conditions: absorbance 600 nm after 20 hours at 37° C./5% CO2, read-out: IC50 (Inhibitory concentration) against Neisseria gonorrhoeae
Procedure: Actively growing Neisseria gonorrhoeae on GC agar (based on; Spence et. al. (2008): Curr. Protoc. Microbiol. 8:4A.1.1-4A.1.26) plates are harvested and transferred to GC broth (based on; Spence et al (2008): Curr. Protoc. Microbiol. 8:4A.1.1-4A.1.26) to generate a liquid stock. This culture is allowed to establish and grow to mid-log phase (at 37° C./5% CO2), finally this culture is diluted (˜10^5 cells/ml) to generate a seed inoculum to establish plate-based broth assays. EC50 values were determined by assaying growth (absorbance read at 600 nm, after 20 hours at 37° C./5% CO2) of Neisseria gonorrhoeae across a 10-point dilution series of the test compound. The EC50 value is determined from transformed data to identify the concentration of compound giving a 50% response relative to control samples (no compound).

Q: Which IC50 does the source give for CCOC(=O)c1nnc(Nc2nc3cc(C(F)(F)F)ccc3n2C)o1 [Example 55, Ethyl 5-((1-methyl-5-(trifluoromethyl)-1H-benzo[d]imidazol-2-yl)amino)-1,3,4-oxadiazole-2-carboxylate] here?
A: The IC50 was ≤ 1 µM.

Q: With O=C(O)c1nnc(Nc2nc3ccc(F)cc3o2)o1 [Example 223, Sodium 5-((6-fluorobenzo[d]oxazol-2-yl)amino)-1,3,4-oxadiazole-2-carboxylate] as the molecule, how does the IC50 read?
A: The IC50 was ≤ 100 µM.

Q: Cc1nnc(Nc2nc3cc(C(F)(F)F)c(Cl)cc3n2C)[nH]1 [Example 144, 6-Chloro-1-methyl-N-(5-methyl-4H-1,2,4-triazol-3-yl)-5-(trifluoromethyl)-1H-benzo[d]imidazol-2-amine] was tested. Which IC50 did it give?
A: Its IC50 is ≤ 100 µM.

Q: For CN(C)Cc1nnc(Nc2nc3cc(C(F)(F)F)ccc3o2)o1 [Example 82, N-(5-((Dimethylamino)methyl)-1,3,4-oxadiazol-2-yl)-5-(trifluoromethyl)benzo[d]oxazol-2-amine], which IC50 is on record?
A: Its IC50 is ≤ 1 µM.

Q: O=C(Nc1cccc(F)c1)c1csc(Nc2nc3cc(C(F)(F)F)ccc3o2)n1 [Example 9, N-(3-Fluorophenyl)-2-((5-(trifluoromethyl)benzo[d]oxazol-2-yl)amino)thiazole-4-carboxamide] was tested. Which IC50 did it give?
A: The IC50 was ≤ 1 µM.

Q: How did the IC50 turn out when NC(=O)c1csc(Nc2nc3cccc(Cl)c3o2)n1 [Example 36, 2-((7-Chlorobenzo[d]oxazol-2-yl)amino)thiazole-4-carboxamide] was run?
A: The IC50 was ≤ 1 µM.

Q: For Clc1ccc2oc(Nc3nc4ccccc4o3)nc2c1 [Example 162, N-(Benzo[d]oxazol-2-yl)-5-chlorobenzo[d] oxazol-2-amine], which IC50 is on record?
A: Its IC50 is ≤ 0.1 µM.

Q: For C#Cc1nnc(Nc2nc3ccc(Cl)cc3o2)o1 [Example 194, 6-Chloro-N-(5-ethynyl-1,3,4-oxadiazol-2-yl)benzo[d]oxazol-2-amine], which IC50 is on record?
A: Its IC50 is ≤ 0.1 µM.

Q: Which IC50 does the source give for CC1CCN(Cc2nnc(Nc3nc4cc(C(F)(F)F)ccc4o3)o2)C1 (stereo not shown) [Example 78, N-(5-((3-methylpyrrolidin-1-yl)methyl)-1,3,4-oxadiazol-2-yl)-5-(trifluoromethyl)benzo[d]oxazol-2-amine] here?
A: The IC50 was ≤ 1 µM.

Q: For FC(F)(F)c1cc2nc(Nc3nnc[nH]3)oc2cc1Cl [Example 43, 6-Chloro-N-(4H-1,2,4-triazol-3-yl)-5-(trifluoromethyl)benzo[d]oxazol-2-amine], which IC50 is on record?
A: The IC50 was ≤ 0.1 µM.

Q: With Cn1cc(Nc2nc3cc(C(F)(F)F)ccc3o2)nn1 [Example 12, N-(1-Methyl-1H-1,2,3-triazol-4-yl)-5-(trifluoromethyl)benzo[d]oxazol-2-amine] as the molecule, how does the IC50 read?
A: Its IC50 is ≤ 10 µM.

Q: NC(=O)c1csc(Nc2nc3cc(C(F)(F)F)c(Cl)cc3o2)n1 [Example 34, 2-((6-Chloro-5-(trifluoromethyl)benzo[d]oxazol-2-yl)amino)thiazole-4-carboxamide] was tested. Which IC50 did it give?
A: Its IC50 is ≤ 1 µM.

Q: Which IC50 does the source give for Cc1nnc(Nc2nc3c(C)cc(Cl)cc3o2)[nH]1 [Example 141, 6-Chloro-4-methyl-N-(5-methyl-4H-1,2,4-triazol-3-yl)benzo[d]oxazol-2-amine] here?
A: The IC50 was ≤ 1 µM.

Q: Which IC50 does the source give for FC(F)(F)c1cc2oc(Nc3nnco3)nc2cc1Cl [Example 149, 5-Chloro-N-(1,3,4-oxadiazol-2-yl)-6-(trifluoromethyl)benzo[d]oxazol-2-amine] here?
A: Its IC50 is ≤ 0.1 µM.

Q: Cc1cc2nc(Nc3nnco3)oc2cc1F [Example 203, 6-Fluoro-5-methyl-N-(1,3,4-oxadiazol-2-yl)benzo[d]oxa-zol-2-amine] was tested. Which IC50 did it give?
A: Its IC50 is ≤ 0.1 µM.

Q: How did the IC50 turn out when Clc1ccc2nc(Nc3nnc(CN4CCCC4)o3)oc2c1 [Example 77, 6-Chloro-N-(5-(pyrrolidin-1-ylmethyl)-1,3,4-oxadiazol-2-yl)benzo[d]oxazol-2-amine] was run?
A: Its IC50 is ≤ 0.1 µM.

Q: CN1CCC[C@H]1c1nnc(Nc2nc3cc(C(F)(F)F)ccc3o2)o1 [Example 126, (S)-N-(5-(1-Methylpyrrolidin-2-yl)-1,3,4-oxadiazol-2-yl)-5-(trifluoromethyl)benzo[d]oxazol-2-amine] was tested. Which IC50 did it give?
A: Its IC50 is ≤ 1 µM.

Q: How did the IC50 turn out when Clc1ccc2nc(Nc3cocn3)oc2c1 [Example 221, 6-Chloro-N-(oxazol-4-yl)benzo[d]oxazol-2-amine] was run?
A: Its IC50 is ≤ 1 µM.

Q: For COc1cc2oc(Nc3nnco3)nc2cc1Cl [Example 190, 5-Chloro-6-methoxy-N-(1,3,4-oxadiazol-2-yl)benzo[d]ox-azol-2-amine], which IC50 is on record?
A: The IC50 was ≤ 0.1 µM.

Q: COCCn1c(C)nnc1Nc1nc2cc(C(F)(F)F)c(Cl)cc2o1 [Example 142, 6-Chloro-N-(4-(2-methoxyethyl)-5-methyl-4H-1,2,4-triazol-3-yl)-5-(trifluoromethyl)benzo[d]oxazol-2-amine] was tested. Which IC50 did it give?
A: Its IC50 is ≤ 1 µM.

Q: O=C(c1csc(Nc2nc3cc(C(F)(F)F)ccc3o2)n1)N1CCNCC1 [Example 95, Piperazin-1-yl(2-((5-(trifluoromethyl)benzo[d]oxazol-2-yl)amino)thiazol-4-yl)methanone hydrochloride] was tested. Which IC50 did it give?
A: The IC50 was ≤ 1 µM.

Q: Which IC50 does the source give for FC(F)(F)c1ccc2oc(Nc3nc4ccncc4o3)nc2c1 [Example 59, N-(5-(triFluoromethyl)benzo[d]oxazol-2-yl)oxazolo[5,4-c]pyridin-2-amine] here?
A: Its IC50 is ≤ 1 µM.

Q: With Cc1nnc(Nc2nc3ccc(Cl)cc3o2)[nH]1 [Example 122, 6-Chloro-N-(5-methyl-4H-1,2,4-triazol-3-yl)benzo[d]oxazol-2-amine] as the molecule, how does the IC50 read?
A: The IC50 was ≤ 10 µM.

Q: How did the IC50 turn out when O=[N+]([O-])c1ccc2nc(Nc3nnco3)oc2c1 [Example 186, 6-Nitro-N-(1,3,4-oxadiazol-2-yl)benzo[d]ox-azol-2-amine] was run?
A: The IC50 was ≤ 10 µM.

Q: How did the IC50 turn out when NC(=O)c1nnc(Nc2nc3ccc(Cl)cc3o2)o1 [Example 200, 5-((6-Chlorobenzo[d]oxazol-2-yl)amino)-1,3,4-oxadiazole-2-carboxamide] was run?
A: The IC50 was ≤ 100 µM.

Q: For FC(F)(F)c1cc2oc(Nc3nc4ccccc4[nH]3)nc2cn1 [Example 166, N-(1H-Benzo[d]imidazol-2-yl)-6-(trifluoromethyl) oxazolo[4,5-c]pyridin-2-amine], which IC50 is on record?
A: Its IC50 is ≤ 1 µM.

Q: For CCOC(=O)c1nnc(Nc2nc3cc(C(F)(F)F)ccc3o2)o1 [Example 52, Ethyl 5-((5-(trifluoromethyl)benzo[d]oxazol-2-yl)amino)-1,3,4-oxadiazole-2-carboxylate], which IC50 is on record?
A: Its IC50 is ≤ 1 µM.

Q: How did the IC50 turn out when O=C(O)c1nc(Nc2nc3ccc(Cl)cc3o2)co1 [Example 182, 4-((6-chlorobenzo [d]oxazol-2-yl)amino)oxa-zole-2-carboxylic acid] was run?
A: Its IC50 is ≤ 100 µM.

Q: With Cc1ccc2oc(Nc3nc(C(=O)NC4CC4)cs3)nc2c1 [Example 16, N-Cyclopropyl-2-((5-methylbenzo[d]oxazol-2-yl)amino)thiazole-4-carboxamide] as the molecule, how does the IC50 read?
A: The IC50 was ≤ 1 µM.

Q: How did the IC50 turn out when Fc1cc2oc(Nc3nnco3)nc2cc1OC(F)(F)F [Example 207, 6-Fluoro-N-(1,3,4-oxadiazol-2-yl)-5-(trifluoromethoxy) benzo[d]ox-azol-2-amine] was run?
A: The IC50 was ≤ 0.1 µM.

Q: With Cc1nnc(Nc2nc3cnc(C(F)(F)F)cc3o2)o1 [Example 53, N-(5-Methyl-1,3,4-oxadiazol-2-yl)-6-(trifluoromethyl)oxazolo[4,5-c]pyridin-2-amine] as the molecule, how does the IC50 read?
A: The IC50 was ≤ 10 µM.

Q: Which IC50 does the source give for Cc1nnc(Nc2nc3cc(C(F)(F)F)c(Cl)cc3o2)[nH]1 [Example 125, 6-chloro-N-(5-methyl-4H-1,2,4-triazol-3-yl)-5-(trifluoromethyl)benzo[d]oxazol-2-amine] here?
A: Its IC50 is ≤ 0.1 µM.

Q: NC(=O)c1csc(Nc2nc3ccc(C(F)(F)F)cc3o2)n1 [Example 101, 2-((6-(trifluoromethyl)benzo[d]oxazol-2-yl)amino)thiazole-4-carboxamide] was tested. Which IC50 did it give?
A: The IC50 was ≤ 1 µM.

Q: With FC(F)(F)c1ccc2oc(Nc3nnc(C(F)(F)F)o3)nc2c1 [Example 110, 5-(Trifluoromethyl)-N-(5-(trifluoromethyl)-1,3,4-oxadiazol-2-yl)benzo[d]oxazol-2-amine] as the molecule, how does the IC50 read?
A: The IC50 was ≤ 100 µM.

Q: With Clc1cccc2nc(Nc3nnc(CN4CCCC4)[nH]3)oc12 [Example 131, 7-Chloro-N-(5-(pyrrolidin-1-ylmethyl)-4H-1,2,4-triazol-3-yl)benzo[d]oxazol-2-amine] as the molecule, how does the IC50 read?
A: Its IC50 is ≤ 1 µM.

Q: How did the IC50 turn out when Clc1cnc2nc(Nc3nnco3)oc2c1 [Example 220, 6-Chloro-N-(1,3,4-oxadiazol-2-yl)oxazolo[4,5-b]pyridin-2-amine] was run?
A: Its IC50 is ≤ 10 µM.

Q: Which IC50 does the source give for FC(F)(F)c1cc2nc(Nc3nnc(CN4CCCC4)[nH]3)oc2cc1Cl [Example 137, 6-Chloro-N-(5-(pyrrolidin-1-ylmethyl)-4H-1,2,4-triazol-3-yl)-5-(trifluoromethyl)benzo[d]oxazol-2-amine] here?
A: Its IC50 is ≤ 0.1 µM.

Q: How did the IC50 turn out when O=C(NC1CC1)c1csc(Nc2nc3ccccc3o2)n1 [Example 15, 2-(Benzo[d]oxazol-2-ylamino)-N-cyclopropylthiazole-4-carboxamide] was run?
A: The IC50 was ≤ 1 µM.

Q: How did the IC50 turn out when FC1CCN(Cc2nnc(Nc3nc4cc(C(F)(F)F)ccc4o3)o2)C1 (stereo not shown) [Example 79, N-(5-((3-Fluoropyrrolidin-1-yl)methyl)-1,3,4-oxadiazol-2-yl)-5-(trifluoromethyl)benzo[d]oxazol-2-amine] was run?
A: The IC50 was ≤ 1 µM.

Q: How did the IC50 turn out when O=C(NC1CC1)c1cnc(Nc2nc3cc(C(F)(F)F)ccc3o2)s1 [Example 37, N-Cyclopropyl-2-((5-(trifluoromethyl)benzo[d]oxazol-2-yl)amino)thiazole-5-carboxamide] was run?
A: The IC50 was ≤ 10 µM.

Q: Which IC50 does the source give for CN1CCc2nc(Nc3nc4cc(C(F)(F)F)ccc4o3)oc2C1 [Example 155, 5-Methyl-N-(5-(trifluoromethyl)benzo[d]oxazol-2-yl)-4,5,6,7-tetrahydrooxazolo[5,4-c]pyridin-2-amine] here?
A: The IC50 was ≤ 1 µM.

Q: FC(F)(F)c1cc2oc(Nc3nnc(C4CC4)o3)nc2cn1 [Example 51, N-(5-Cyclopropyl-1,3,4-oxadiazol-2-yl)-6-(trifluoromethyl)oxazolo[4,5-c]pyridin-2-amine] was tested. Which IC50 did it give?
A: The IC50 was ≤ 1 µM.

Q: Which IC50 does the source give for FC(F)(F)c1ccc2nc(Nc3ncc(N4CCCCC4)s3)oc2c1 [Example 28, N-(5-(Piperidin-1-yl)thiazol-2-yl)-6-(trifluoromethyl)benzo[d]oxazol-2-amine] here?
A: The IC50 was ≤ 1 µM.
